Holding throughout (format): cell-based
Data set [1] relates to caspases 3 and 7 in HCT-116 cells. In words: caspases 3 and 7 activity (Apo-ONE test). The conditions noted are these: HCT-116, 24 hours, 5 nM to 75 nM. As to the method:
The activity of caspases 3 and 7, marker enzymes of apoptosis, was measured using the Apo-ONE (Promega) test after treating HCT-116 cells with compound (1) at concentrations varying from 5 nM to 75 nM.

Data set [2] has as its system HUVEC cells (human umbilical vascular endothelial cells). The experiment in a line: cell growth, normal cells. The conditions noted are these: 72 hours of treatment. The procedure: (§1) The biological activity of compound (1) was studied in vitro on 3 different cancer cell lines: • HCT-116 (colorectal carcinoma) • U87 (glioblastoma) • K562 (myeloid leukaemia) and on 3 normal non-cancerous cell types: • HUVEC (human umbilical vascular endothelial cells) • NHDF (human dermal fibroblasts) • HFDPC (human hair follicle dermal papilla cells).
(§2) The cells selected for this study were incubated at 37° in the presence of compound (1) added in the culture medium at different concentrations and at different times.
(§3) The effect of compound (1) on HCT-116, U87 and K562 cell growth was evaluated using a cell growth test (CellTiter-Blue™ m Cell Viability Assay, Promega). The growth curves and the IC50 values (concentration of compound inducing a 50% reduction of cell growth) determined after 72 hours of cell treatment with compound (1) are presented in FIG. 1. They are 30 nm for HCT-116 cells, 45 nM for U87 cells and 70 nM for K562.
(§4) In order to determine the specificity of action of compound (1) on cancer cells, we evaluated the effect thereof with respect to normal human HUVEC, NHDF and HFDPC cells and the HCT-116, U87 and K652 cancer cell annotations.

Data set [3] concerns HFDPC (human hair follicle dermal papilla cells). The experiment in a line: cell growth, normal cells. The note with it: 72 hours of treatment. As to the method: as §1, §2, §3, §4
For data set [4], the system named is NHDF cells (human dermal fibroblasts). The experiment in a line: cell growth, normal cells. The conditions noted are these: 72 hours of treatment. The procedure:
as §1, §2, §3, §4

The test system of data set [5] is HCT-116 cells. In words: mitochondrial transmembrane potential (JC-1 probe, flow cytometry). The conditions noted are these: HCT-116, 24 hours, 25 nM to 100 nM. The procedure: The study of the mitochondrial transmembrane potential, Δψm, was conducted by flow cytometry, using the JC-1 probe (MitoProbe™ JC-1 assay, Molecular Probes). JC-1 is a lipophilic […] compound which selectively penetrates the mitochondria, the colour whereof changes from green to red when the transmembrane potential increases.
In general terms: A flow cytometer gives signals particle by particle.

Data set [6] has as its system normal human cells. In words: specificity of action: normal human cells versus cancer cells. The conditions noted are these: in vitro, concentrations encompassing the IC50.
Excerpt: as §4
The IC50 values are thus up to 300 times higher for normal cells compared to those obtained for cancer cells.

For data set [7], the system named is intracellular H2O2 in HCT-116 cells. The experiment in a line: intracellular H2O2 concentration (DCF-DA, flow cytometry). An excerpt:
The protein peroxiredoxin is an enzyme having a peroxidase activity, controlling the intracellular hydrogen peroxide (H2O2) concentration. Therefore, we evaluated the effect of compound (1) on the intracellular H2O2 concentration, using DCF-DA (2′,7′-dichlorofluorescein diacetate, Sigma) as a marker of intracellular H2O2. Hydrogen peroxide is an intracellular second messenger. It regulates, according to the concentration thereof, numerous functions such as proliferation or apoptosis. A reduction of the concentration thereof is associated with a decrease in proliferation.

The test system of data set [8] is proteins p21 and p27 in HCT-116 cells. In words: Western Blot of proteins p21 and p27. The note with it: HCT-116, 24 hours. The procedure: The gene of the protein p27 is described as being regulated by FOXO3, whereas that of the protein p21 is controlled by the p53 transcription factor, stimulated inter alia by oxidative stress. The HCT-116 cells were treated with compound (1) for 24 hours. The cell extracts were then analysed by Western Blot.
On the technique in general: In western blotting, separated proteins are transferred to a membrane and probed.

For data set [9], the system named is HCT-116 cells. In words: counting live cells after trypan blue staining. As to the method: The effect of compound (1) on cell growth was described in more detail on the HCT-116 cell line. This study was conducted as a function of the concentration and exposure time of the cells to the molecule under test (24 hrs, 48 hrs and 72 hrs) by counting the number of live cells after excluding dead cells by means of trypan blue staining.
FIG. 2 represents the effect of compound (I) on the number and viability of HCT-116 cells as a function of the concentration thereof and the treatment time.

The test system of data set [10] is protein LC3-II in HCT-116 cells. The experiment in a line: autophagy: Western Blot of LC3-II. The note with it: HCT-116, 24 hours, 5 nM to 100 nm. The procedure: In the aim of determining whether the stoppage of the cell cycle induced by compound (1) induces an autophagic reaction, the HCT-116 cells were treated with compound (1) at different doses for 24 hours. The cell extracts then underwent Western Blot analysis in order to view the expression of the protein LC3-II. Indeed, the protein LC3 exists in the cell either in cytosolic form (LC3-I) or associated with phagosomes (LC3-II). The latter is the marker of the autophagic reaction.

For data set [11], the system named is HCT-116 cells. In words: cell cycle flow cytometry analysis. The note with it: HCT-116, 24 hours, 30 and 50 nM. The procedure:
This effect is significant after 24 hours of exposure of the cells to compound (1) used at the 30 and 50 nM concentrations (FIG. 4).

Data set [12] concerns U87 cells (glioblastoma). The experiment in a line: cell growth test (CellTiter-Blue Cell Viability Assay). The note with it: Homo sapiens, U-87 MG, 72 hours of treatment, read-out: IC50 (concentration of compound inducing a 50% reduction of cell growth). As to the method:
as §1, §2, §3

Data set [13] concerns HCT-116 cells (colorectal carcinoma). Described as above. The conditions noted are these: Homo sapiens, 72 hours of treatment, read-out: IC50 (concentration of compound inducing a 50% reduction of cell growth). The procedure: as §1, §2, §3
Data set [14] relates to K562 (myeloid leukaemia). Described as above. The conditions noted are these: Homo sapiens; K562, 72 hours of treatment; read-out: IC50 (concentration of compound inducing a 50% reduction of cell growth). As to the method:
as §1, §2, §3

Data set [15] deals with Akt protein serine 473 phosphorylation, FOXO3, peroxiredoxin 1 in HCT-116 cells. In words: survival pathway PI3 kinase-Akt-Foxo Western Blot. The conditions noted are these: HCT-116, 24 hours. The procedure:
In view of the stoppage of the cell cycle in the G0/G1 phase associated with an autophagic response in the absence of apoptosis following treatment with compound (1), we studied the action of this compound on the survival pathway involving PI3 kinase-Akt-Foxo. This signalling pathway is very frequently found to be disrupted (by stimulation) in a large number of cancer cells and contributes to the survival thereof.
Indeed, HCT-116 cells were exposed for 24 hours to the action of compound (1) at concentrations varying from 5 nM to 100 nm.

`O=[N+]([O-])c1cc(-c2cn(CCCN3CCCCCCCCCCCC3)cc2-c2cc(O)c(O)c([N+](=O)[O-])c2)cc(O)c1O` [compound (1), 5,5′-(1-(3-(Azacyclotridecan-1-yl)propyl)-1H-pyrrole-3,4-diyl)bis(3-nitrobenzene-1,2-diol)]: the “activity of caspases 3 and 7” value in data set [1] was “lack of variations in the activity of these enzymes”. Moreover, the IC50 came out at 2000 nM in [2]; 10000 nM in data set [3]; 5000 nM in data set [4]; 45 nM in data set [12]; 30 nM in [13]; 70 nM in data set [14]. Also, the “mitochondrial transmembrane potential Δψm” value in data set [5] is listed as “does not modify Δψm significantly”. Also, the “cytotoxicity with respect to normal human cells” value in [6] is given as “does not exhibit any cytotoxicity”. Further, the “dose dependence of the effect on intracellular H2O2” value in data set [7] (HCT-116) is “dose dependent”. Further, the “decrease of the intracellular H2O2 concentration” value in data set [7] (HCT-116, 50 nM, 18 hours of treatment) is “approximately 50%”. Besides, the “expression of the protein p21” value in [8] is listed as “no significant effect”. Besides, in [8] (25 and 50 nM), the “expression of protein p27” value is “increase in the expression of protein p27”. Also, in [9] (HCT-116), the “nature of the action (cytostatic / cytotoxic)” value is “cytostatic and not cytotoxic”. The “reduction of the number of cells” value in [9] (HCT-116, 25 nM, 24 hours of treatment) worked out at 40%. Also, in [9] (HCT-116, 24, 48 and 72 hrs), the “cell viability (trypan blue)” value is reported as “lack of modification of cell viability”. For the same compound, the “inhibition of the number of cells” value in data set [9] (HCT-116, from 48 hours, concentrations greater than the IC50) was “up to 80%”. For the same compound, the “expression of LC3-II” value in data set [10] is recorded as “increase in the expression of LC3-II”. Besides, in data set [11], the “effect on the cell cycle” value is “blocks cell division in the G0/G1 phase”. In addition, in data set [15] (5 nM to 100 nm), the “expression of the protein FOXO3” value is recorded as “stimulates the expression of the protein FOXO3”. In addition, in data set [15] (5 nM to 100 nm), the “expression of the protein peroxiredoxin 1” value is reported as “stimulates the expression of the protein peroxiredoxin 1”. For the same compound, the “Akt protein serine 473 phosphorylation” value in data set [15] (from the 25 nm concentration) is given as “totally suppresses”.

These data come from patent US9546159B2, “N-substituted 3,4-bis (catechol) pyrrole compounds, and the preparation and use thereof in the treatment of cancer” (Centre National De La Recherche Scientifique (CNRS), priority 2012, dated 2017).
